Data set [1] deals with ulcers in rats in the stomach region. In words: Determination of anti-ulcer activity (Shay method, ulcers induced in rats by pyloric ligation). Format: in vivo. Particulars: via the mouth, 16 hours after treatment. An excerpt:
(1) Determination of anti-ulcer activity
The method used is described by Shay et al. in Gastroenterology, 5, 43, (1945).
The Shay method consists of inducing ulcers in rats in the stomach region by pyloric ligation.
The animals are anesthetized with ether. A longitudinal incision is made, 1 cm below the sternum; the glandular part of the stomach and the duodenum are exposed, and a ligature is placed several mm below the pylorus. The muscular sheet is left as it is and the skin is sutured with 2 clips.
The animals immediately receive the dispersive or the substance to be studied, via the mouth, in a volume of 0.5 ml/100 g and are kept without food or drink until sacrificed, 16 hours after the treatment, by carotid bleeding.
Before removal of the stomach, a ligature is placed above the cardia.
The gastric liquid is collected for measurement of pH.
The stomach is then opened along the major curvature, rinsed with physiological serum, and spread out on millimeter graph paper to be examined under a binocular magnifier.
The severity of the lesions, graded 0 to 4, is macroscopically evaluated for each stomach.
For each group of rats, the mean intensity of the ulcerations is determined, and the protection is calculated as the ratio of the mean index for the treated group to the mean index for the control group.
The pH values of the gastric liquid are likewise determined for the treated and control animals.

Data set [2] in a line: Determination of Acute Toxicity (oral LD50 in mice). To be noted: mouse, in vivo. Here is the method:
(2) Determination of Acute Toxicity
The lethal dose LD50 of the derivatives of certain examples were evaluated after administration by the oral route in mice.

For `COc1ccc(C(=O)CC(O)C(=O)O)cc1OC` (stereo not shown) [Example 1, 4-(3,4-dimethoxyphenyl)-4-oxo-2-hydroxy-butanoic acid], the “Ulcerations, % of protection with respect to controls” value (“Ulcerations, % of protection” for short) came out at 27% in data set [1] (0.8 mg/kg), 72% in data set [1] (4 mg/kg) and 72% in data set [1] (20 mg/kg). Further, the entries for the “pH of gastric liquid, treated animals” value in data set [1] (0.8 mg/kg), in data set [1] (4 mg/kg) and in data set [1] (20 mg/kg) were 3.4, 3.0 and 2.3, respectively. The LD50 in data set [2] was above 1000 mg/kg.
For `O=C(CC(O)C(=O)O)c1ccc(Br)cc1` (stereo not shown) [Example 5, 4-(4-bromophenyl)-4-oxo-2-hydroxy-butanoic acid], in data set [1] (20 mg/kg), the “Ulcerations, % of protection” value came out at 40% and the “pH of gastric liquid, treated animals” value is reported as 3.1. Further, in data set [1] (100 mg/kg), the “Ulcerations, % of protection” value came out at 95% and the “pH of gastric liquid, treated animals” value turned out to be 3.4. Besides, the LD50 in data set [2] is above 1000 mg/kg.
The like results for `O=C(CC(O)C(=O)O)c1ccc(Cl)cc1Cl` (stereo not shown) [Example 4, 4-(2,4-dichlorophenyl)-4-oxo-2-hydroxy-butanoic acid] were, in that order, 9%, 2.9, 91%, 4.4 and above 1000 mg/kg.
`O=C(CC(O)C(=O)O)c1ccc(Cl)cc1` (stereo not shown) [Example 2, 4-(4-chlorophenyl)-4-oxo-2-hydroxy-butanoic acid]: in data set [1] (4 mg/kg), the “Ulcerations, % of protection” value was found to be 25% and the “pH of gastric liquid, treated animals” value was determined as 3.5. Besides, in data set [1] (20 mg/kg), the “Ulcerations, % of protection” value is reported as 72% and the “pH of gastric liquid, treated animals” value was determined as 3.0. The compound also displayed an LD50 in data set [2] above 1000 mg/kg.
As to `O=C(CC(O)C(=O)O)c1ccc(Cl)c(Cl)c1` (stereo not shown) [Example 3, 4-(3,4-dichlorophenyl)-4-oxo-2-hydroxy-butanoic acid], in data set [1] (20 mg/kg), the “Ulcerations, % of protection” value worked out at 36% and the “pH of gastric liquid, treated animals” value worked out at 3.2. In data set [1] (100 mg/kg), the “Ulcerations, % of protection” value amounted to 91% and the “pH of gastric liquid, treated animals” value is 4.2. Moreover, the LD50 in data set [2] is above 1000 mg/kg.
With `O=C(CC(O)C(=O)O)c1ccccc1[N+](=O)[O-]` (stereo not shown) [Example 13, 4-(2-nitrophenyl)-4-oxo-2-hydroxy-butanoic acid], in data set [2], the LD50 was above 1000 mg/kg.
With `O=C(CC(O)C(=O)O)c1ccc([N+](=O)[O-])cc1` (stereo not shown) [Example 8, 4-(4-nitrophenyl)-4-oxo-2-hydroxy-butanoic acid], in data set [1] (100 mg/kg), the “Ulcerations, % of protection” value came to 49% and the “pH of gastric liquid, treated animals” value is 3.0. The compound also had a median lethal dose (LD50) in data set [2] above 1000 mg/kg.
Regarding `COc1cc(OC)cc(C(=O)CC(O)C(=O)O)c1` (stereo not shown) [Example 11, 4-(3,5-dimethoxyphenyl)-4-oxo-2-hydroxy-butanoic acid], the “Ulcerations, % of protection” value is given as 53% in data set [1] (1 mg/kg), 50% in data set [1] (4 mg/kg), 60% in data set [1] (20 mg/kg) and 88% in data set [1] (100 mg/kg). Besides, the “pH of gastric liquid, treated animals” value in data set [1] (1 mg/kg) is given as 1.9; in data set [1] (4 mg/kg) it was 2.0; in data set [1] (20 mg/kg), 2.0; in data set [1] (100 mg/kg), 3.0. Further, the LD50 in data set [2] is above 1000 mg/kg.

The values are drawn from US4402978A, “Gastro-protecting activity of substituted derivatives of 4-phenyl-4-oxo-2-hydroxy-butanoic acid” (Roussel-Uclaf, priority 1980, dated 1983).
